11 compounds from patent US9499493B2, “2,4-pyrimidinediamine compounds and their uses” (Rigel Pharmaceuticals, Inc., priority 2002, dated 2016) can be followed below.

Where only a bound is given, the exact number is not on record here.

For data set [1], the system named is cultured human mast cells (CHMC). As to the kind of experiment: CHMC high cell density IgE activation: LTC4. Format: cell-based. As to conditions: anti-IgE activation. Here is the method: (§1) Inhibition of degranulation was measured at both low and high cell density by quantifying the release of the granule specific factors tryptase, histamine and hexosaminidase. Inhibition of release and/or synthesis of lipid mediators was assessed by measuring the release of leukotriene LTC4 and inhibition of release and/or synthesis of cytokines was monitored by quantifying TNF-α, IL-6 and IL-13. Tryptase and hexosaminidase were quantified using fluorogenic substrates as described in their respective examples. […] The protocols of the various assays are provided below.
(§2) After sensitizing, cells are counted, pelleted (1000 rpm, 5-10 minutes), and resuspended at 1-2×10^6 cells/ml in MT buffer. Add 100 ul of cell suspension to each well and 100 ul of compound dilutions. The final vehicle concentration is 0.5% DMSO. Incubate at 37° C. (5% CO2) for 1 hour. After 1 hour of compound treatment, stimulate cells with 6× anti-IgE. Mix wells with the cells and allow plates to incubate at 37° C. (5% CO2) for one hour. After 1 hour incubation, pellet cells (10 minutes, 1000 RPM) and collect 200 ul per well of the supernatant, being careful not to disturb pellet. Place the supernatant plate on ice. During the 7-hour step (see next) perform tryptase assay on supernatant that had been diluted 1:500. Resuspend cell pellet in 240 ul of CM media containing 0.5% DMSO and corresponding concentration of compound. Incubate CHMC cells for 7 hours at 37° C. (5% CO2). After incubation, pellet cells (1000 RPM, 10 minutes) and collect 225 ul per well and place in −80° C. until ready to perform ELISAS. ELISAS are performed on appropriately diluted samples (determined empirically for each donor cell population so that the sample measurement falls within the standard curve) following the supplier's instructions.

Data set [2] shares this test system. The data set can be described thus: CHMC low cell density IgE activation: LTC4 assay. Format: cell-based. As to conditions: anti-IgE. Here is the method:
Pellet CHMC cells (980 rpm, 10 min) and resuspend in pre-warmed MT. Add 65 ul of cells to each 96-well plate. Depending on the degranulation activity for each particular CHMC donor, load 1000-1500 cells/well. Mix four times followed by a 1 hr incubation at 37° C. […] Stimulate cells by adding 25 ul of 6× anti-IgE solution to the appropriate plates. Add 25 ul MT to un-stimulated control wells. Mix twice following addition of the anti-IgE. Incubate at 37° C. for 30 minutes. […] Spin plates at 1000 rpm for 10 min to pellet cells. Transfer 25 ul of supernatant to a 96-well black bottom plate and add 100 ul of freshly diluted tryptase substrate solution to each well. Incubate plates at room temperature for 30 min.
Leukotriene C4 (LTC4) is also quantified using an ELISA kit on appropriately diluted supernatant samples (determined empirically for each donor cell population so that the sample measurement falls within the standard curve) following the supplier's instructions.

For data set [3] the test system is unchanged. The data set can be described thus: CHMC low cell density IgE activation: tryptase assay. The conditions noted are these: anti-IgE. The data set is classed as cell-based. Summed up:
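Degranulation was triggered with anti-IgE for 30 minutes at 37° C in cultured human mast cells seeded at low density (1000-1500 cells/well, chosen by donor) after a 1 hr equilibration in MT buffer. Released tryptase in cleared supernatant was quantified with a tryptase substrate at room temperature for 30 minutes.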

For data set [4] the test system is unchanged. As to the kind of experiment: CHMC low cell density ionomycin activation: tryptase assay. Format: cell-based.
Data set [5] shares this test system. The data set can be described thus: CHMC high cell density IgE activation: histamine. Format: cell-based. As to conditions: anti-IgE activation. How it is done:
as §1, §2

For data set [6] the test system is unchanged. As to the kind of experiment: CHMC high cell density IgE activation: tryptase. The data set is classed as cell-based. The conditions noted are these: anti-IgE activation. Here is the method: as §2
Data set [7] shares this test system. The data set can be described thus: CHMC high cell density IgE activation: IL-13. Format: cell-based. As to conditions: anti-IgE activation. Here is the method: as §1, §2
The test system is the same in data set [8]. As to the kind of experiment: CHMC high cell density IgE activation: TNFalpha. As to conditions: anti-IgE activation; read-out: CHMC high density TNF-alpha. Format: cell-based. How it is done:
as §1, §2

The test system is the same in data set [9]. The data set can be described thus: CHMC high cell density IgE activation: hexos (hexosaminidase) release. The data set is classed as cell-based. The conditions noted are these: anti-IgE activation. How it is done:
as §1, §2

For data set [10], the system named is bone marrow derived mast cells (BMMC). The data set can be described thus: BMMC high cell density IgE activation: IL-6. The data set is classed as cell-based, mouse. As to conditions: anti-IgE, second part of TABLE 1. Here is the method: as §1
(§3) After sensitizing, cells are counted, pelleted (1000 rpm, 5-10 minutes), and resuspended at 1-3×10^6 cells/ml in MT buffer. Add 100 ul of cell suspension to each well and 100 ul of compound dilutions. The final vehicle concentration is 0.5% DMSO. Incubate at 37° C. (5% CO2) for 1 hour. After 1 hour of compound treatment, stimulate cells with 6× stimulus (60 ng/ml DNP-BSA). Mix wells with the cells and allow plates to incubate at 37° C. (5% CO2) for one hour. After 1 hour incubation, pellet cells (10 minutes, 1000 RPM) and collect 200 ul per well of the supernatant, being careful not to disturb pellet, and transfer to a clean tube or 96-well plate. Place the supernatant plate on ice. During the 4-5 hour step (see next) perform the hexosiminidase assay. Resuspend cell pellet in 240 ul WEI-conditioned media containing 0.5% DMSO and corresponding concentration of compound. Incubate BMMC cells for 4-5 hours at 37° C. (5% CO2). After incubation, pellet cells (1000 RPM, 10 minutes) and collect 225 ul per well and place in −80° C. until ready to perform ELISAS. ELISAS are performed on appropriately diluted samples (determined empirically for each donor cell population so that the sample measurement falls within the standard curve) following the supplier's instructions.

For data set [11] the test system is unchanged. As to the kind of experiment: BMMC high cell density IgE activation: histamine. Format: cell-based, mouse. The conditions noted are these: anti-IgE, second part of TABLE 1. How it is done: as §1, §3
Data set [12] has the same test system. As to the kind of experiment: BMMC high cell density IgE activation: LTC4. The data set is classed as cell-based, mouse. The conditions noted are these: anti-IgE, second part of TABLE 1. How it is done:
as §1, §3

The test system is the same in data set [13]. As to the kind of experiment: BMMC high cell density IgE activation: hexosaminidase. As to conditions: anti-IgE, second part of TABLE 1, read-out: BMMC anti-IgE hexos. IC50. The data set is classed as cell-based, mouse. How it is done:
as §3
Hexosaminidase assay: In a solid black 96-well assay plate, add 50 uL hexosaminidase substrate (4-methylumbelliferyl-N-acetyl-(3-D-glucosaminide; 2 mM) to each well. Add 50 uL of BMMC cell supernatant (see above) to the hexoseaminidase substrate, place at 37° C. for 30 minutes and read the plate at 5, 10, 15, and 30 minutes on a spectrophotometer.

Data set [14] shares this test system. The data set can be described thus: BMMC high cell density IgE activation: TNFalpha. The conditions noted are these: anti-IgE, second part of TABLE 1, read-out: BMMC anti-IgE TNF-alpha IC50. Format: cell-based, mouse. Here is the method: as §1, §3
Data set [15] deals with Jurkat cells. As to the kind of experiment: Jurkat toxicity, Cell Titer Glo assay. The data set is classed as cell-based. The conditions noted are these: 18 hours incubation. Here is the method: Seed 50 μl cells (1×10^6/ml) into each well containing 50 μl compound. […] Shake plates for 1 minute to mix cells and compound. Incubate plates at 37° C. […] Next day, harvest 50 μl cells from each well, add to 50 μl Cell Titer Glo reagent ([…]). Shake plates for 1 minute. Read on luminometer.

In data set [16] the test system is FcγRI-mediated degranulation. The data set can be described thus: FcγRI receptor-mediated degranulation (activation with anti-human IgG Fab fragment). Format: cell-based. The conditions noted are these: cells not primed with IgE, activated with rabbit anti-human IgG Fab fragment.
The nature of data set [17]: Pharmacokinetics / oral bioavailability in rats. The data set is classed as in vivo. The conditions noted are these: rats. Here is the method:
Over 50 2,4-pyrimidinediamine compounds of the invention were tested for oral bioavailability. For the study, compounds were dissolved in various vehicles (e.g. PEG 400 solution and CMC suspension) for intravenous and oral dosing in the rats. Following administration of the drug, plasma samples were obtained and extracted. The plasma concentrations of the compounds were determined by high performance liquid chromatography/tandem mass spectrometry (LC/MS/MS) methods. Pharmacokinetic analyses were performed based on the plasma concentration data. The pharmacokinetic parameters of interest include Clearance (CL), Volume of distribution at steady-state (Vss), terminal half-life (t1/2), and oral bioavailability (% F).

For `O=C(c1cc2cc(Nc3ncc(F)c(Nc4cccc(O)c4)n3)ccc2o1)N1CCOCC1` [R926488, 5-Fluoro-N4-(3-hydroxyphenyl)-N2-[2-(N-morpholino)carbonylbenzofuran-5-yl]-2,4-pyrimidinediamine], the IC50 is 201 nM in [1]; 752 nM in [2]; 331 nM in [3]; more than 10000 nM in data set [4]; 792 nM in [5]; 623 nM in [6]. Further, the IC50 in data set [7] worked out at 1010 nM; in data set [8], 2440 nM; in data set [9], 521 nM.

On to `Oc1cccc(Nc2nc(Nc3ccc(OCCN4CCOCC4)cc3)ncc2F)c1` [R926699, 5-Fluoro-N4-(3-hydroxyphenyl)-N2-[4-[2-(N-morpholino)ethyleneoxy]phenyl]-2,4-pyrimidinediamine], for which the IC50 was less than 1100 nM in data set [1]; 760 nM in [3]; more than 10000 nM in data set [4]; 1440 nM in data set [5]; less than 1100 nM in data set [6]; 1290 nM in [7]. Besides, the IC50 in data set [8] and in data set [9] was less than 1100 nM in each case.

Consider `COc1cc(Nc2ncc(F)c(Nc3cccc(O)c3)n2)cc(OC)c1` [R926780, N2-(3.5-Dimethoxyphenyl)-5-fluoro-N4-(3-hydroxyphenyl)-2,4-pyrimidinediamine], for which the IC50 was less than 220 nM in data set [10]; less than 220 nM in data set [11]; 461 nM in [12]; less than 220 nM in [13]; less than 220 nM in [14]; more than 10000 nM in data set [4]. This compound also had an IC50 in data set [15] of more than 5000 nM.

Consider `COc1cc(Nc2ncc(F)c(Nc3ccc4c(c3)NC(=O)C(C)(C)O4)n2)cc(OC)c1` [R927050], for which the “FcγRI-mediated degranulation (in words)” value in data set [16] is reported as “inhibit FcγRI-mediated degranulation”. Besides, the “oral bioavailabilities and half-lives (in words)” value in data set [17] is on record as “good”.

As for `Cn1ncc2cc(Nc3ncc(F)c(Nc4ccc5c(c4)OCCO5)n3)ccc21` [R935193, N4-(3,4-Ethylenedioxyphenyl)-5-fluoro-N2-(1-methyl-indazoline-5-yl)-2,4-pyrimidinediamine], the IC50 in data set [10] was 37 nM; in data set [11], 48 nM; in [13] it was 80 nM; in [3], 136 nM; in data set [4], more than 10000 nM. Moreover, the “oral bioavailabilities and half-lives (in words)” value in [17] is given as “good”.

As to `Fc1cnc(Nc2ccc3cn[nH]c3c2)nc1Nc1ccc(Cl)c(Cl)c1` [R935372, N4-(3,4-Dichlorophenyl)-5-fluoro-N2-(indazoline-6-yl)-2,4-pyrimidinediamine], the IC50 was 60 nM in [3] and more than 10000 nM in [4]. Besides, in data set [16], the “FcγRI-mediated degranulation (in words)” value was “inhibit FcγRI-mediated degranulation”. Besides, the “oral bioavailabilities and half-lives (in words)” value in [17] was “good”.

Consider `OCCCn1ncc2cc(Nc3ncc(F)c(Nc4ccc(Cl)c(Cl)c4)n3)ccc21` [R935391], for which, in data set [17], the “oral bioavailabilities and half-lives (in words)” value is on record as “good”.

In turn, `CC1(C)Oc2ccc(Nc3ncc(F)c(Nc4ccc5c(c4)NC(=O)C(C)(C)O5)n3)cc2NC1=O` [R940350, N2,N4-[(2,2-Dimethyl-4H-benzo[1,4]oxazin-3-one)-6-yl]-5-fluoro-2,4-pyrimidinediamine] had an IC50 in data set [4] of 4000 nM. In data set [16], the “FcγRI-mediated degranulation (in words)” value is “inhibit FcγRI-mediated degranulation”. For the same compound, in data set [17], the “oral bioavailabilities and half-lives (in words)” value was “good”.

For `N#CCOc1ccc(Nc2ncc(F)c(Nc3ccc(OCC#N)cc3)n2)cc1` [R945032, N2,N4-Bis[4-(cyanomethyleneoxy)phenyl]-5-fluoro-2,4-pyrimidinediamine], the IC50 in data set [1] is 92.9 nM; in data set [3], 370 nM; in [4] it was more than 10000 nM; in data set [5], 439 nM; in [6], 458 nM; in data set [7] it was 291 nM. The IC50 came out at 1080 nM in data set [8] and 357 nM in data set [9].

`N#CCOc1ccc(Nc2nc(Nc3cccc(O)c3)ncc2F)cc1` [R945071, N4-[4-(Cyanomethyleneoxy)phenyl]-5-fluoro-N2-(3-hydroxyphenyl)-2,4-pyrimidinediamine]: the IC50 in [1], in [5], in [6], in data set [7], in data set [8] and in data set [9] was less than 1100 nM each time.

On to `Cc1cc(Nc2nc(Nc3cccc(OCC(=O)N4CCNCC4)c3)ncc2F)cc(C)c1O` [R945140, N4-(3,5-Dimethyl-4-hydroxyphenyl)-5-fluoro-N2-[3-(N-piperazino)carbonylmethyleneoxyphenyl]-2,4-pyrimidinediamine], for which the IC50 in [3] was 573 nM; in data set [4] it was more than 10000 nM; in data set [5], 1550 nM; in data set [6] it was 1110 nM; in [7] it was more than 10000 nM; in [8] it was 1710 nM. In data set [9], this compound registered an IC50 of 994 nM.
